Laboratory results reported in patent publication EP0358508A2, “Novel immunosuppressant compound” (MERCK & CO. INC., priority 1988, dated 1990).
“Also recorded” adds a separate entry of the source.

What was measured:
[1] = test system: mouse T lymphocytes stimulated with the combination of ionomycin plus PMA; experiment: T-cell proliferation assay (ionomycin plus PMA induced T-cell stimulation, tritiated thymidine uptake); assay type: cell-based, C57B1/6 mice
Text: The principle of this assay is to measure the proliferation of mouse T lymphocytes stimulated with the combination of ionomycin plus PMA. A positive sample in this assay will inhibit T-cell proliferation, as indicated by reduced tritiated thymidine uptake.
Spleens from C57B1/6 mice were taken under sterile conditions and gently dissociated in ice-cold RPMI 1640 culture medium (GIBCO, Grand Island, N.Y.) supplemented with 10% heat-inactivated fetal calf serum (GIBCO). Cells were pelleted by centrifugation at 1500 rpm for 8 minutes. Contaminating red cells were removed by treating the pellet with ammonium chloride lysing buffer (GIBCO) for 2 minutes at 4°C. […]
Purified T lymphocytes were resuspended at 2.5 x 10⁵ cells/ml in complete culture medium composed of RPMI 1640 medium with 10% heat-inactivated fetal calf serum, […] glutamine, 1 mM sodium pyruvate, 2 x 10⁻⁵ M 2-mercaptoethanol and 50 µg/ml gentamycin. […] The proliferation of T lymphocytes was assessed by measurement of tritiated thymidine incorporation. […] Radioactivity of filter discs corresponding to individual wells was measured by standard liquid scintillation counting methods (Beta counter). Mean counts per minute of replicate wells were calculated and the results expressed as percent inhibition of tritiated thymidine uptake (proliferation) as follows: [formula] […]

[2] = Physical characteristics: solubility; assay type: physicochemical; conditions: solvent methanol; qualitative
Text: White amorphous powder • 2. […] Molecular weight of 805, as determined by mass spectrometry consistent with a molecular ion at (m/z) 1093.6556 for the tetra-(trimethylsilyl) derivative and characteristic fragment ions at (m/z) 673 and 481.
White amorphous powder • 2. […] Molecular weight of 805, as determined by mass spectrometry consistent with a molecular ion at (m/z) 1021.6169 for the tri-(trimethylsilyl) derivative and characteristic fragment ions at (m/z) 675 and 483.

CCC[C@@H]1/C=C(\C)C[C@H](C)C[C@H](OC)[C@H]2O[C@@](O)(C(=O)C(=O)N3CCCC[C@H]3C(=O)O[C@H](/C(C)=C/[C@@H]3CC[C@@H](O)[C@H](OC)C3)[C@H](C)[C@@H](O)CC1=O)[C@H](C)C[C@@H]2OC [Tsukubamycin B]
inhibition of T-cell proliferation after addition of IL-2 ([1]; 50 units/ml of IL-2 (recombinant human IL-2) added at the initiation of culture): reversed
inhibition of T-cell activation / % inhibition of tritiated thymidine uptake (proliferation) ([1]; purified mouse spleen T lymphocytes, ionomycin 250 ng/ml plus PMA 10 ng/ml, 44 hours culture plus 4 hours pulse, various concentrations, no numbers given): indicated its immunosuppressant properties; also recorded: positive inhibition of T-cell activation
Solubility [2]: Solubility in methanol
